Where two headings read alike, the source gives them in different places.
Experiments:
Assay type in all cases: cell-based
HIV-1 strain NL4-3 = assay: Anti-HIV-1 luciferase indicator assay in MT2 cells, NL4-3; conditions: viral strain NL4-3; for IC50: Human immunodeficiency virus 1, NL43, MT2, MT2 cells; for TI / Safety Index (CC50/IC50): MT2 cells
Description: (§1) Compound was dissolved in DMSO to make 30 mM stock. Then the 30 mM stock is further diluted to 4 mM using DMSO. The 4 mM stock was used as the top concentration to carry out an 11-point, 3-fold dilution scheme using DMSO in a 96-well plate to make the compound dose plate. Compounds in the dose plate were transferred to a new 96-well plate (working plate) containing PBS with 0.05% pluronic acid. From this working plate, the compound solution was transferred to the 384-well assay plates.
(§2) Control compounds used in compound control wells were prepared and added to assay plates individually.
(§3) MT2 cells were mixed with HIV-1 strain NL4-3 (or IIIB, or CNHN24) and the cell/virus mixture was added to the aforementioned antivirus assay plates. After incubation in a 37° C., 5% CO2 incubator, the supernatant from the assay plate was transferred to a new 384-well plate containing the indicator cells with a fire fly luciferase gene under HIV-1 LTR control. The expression level of luciferase was related to HIV-1 infectivity and was measured by Bright-Glo kit (Promega).
(§4) Therapeutic index (TI) was determined by taking ratio of CC50/IC50

HIV-1 strain IIIB = assay: Anti-HIV-1 luciferase indicator assay in MT2 cells, IIIB; conditions: for IC50: Human immunodeficiency virus 1, IIIB; for TI / Safety Index (CC50/IC50): MT2 cells
Description: as §1, §2, §3, §4

HIV-1 strain CNHN24 = assay: Anti-HIV-1 luciferase indicator assay in MT2 cells, CNHN24; conditions: for TI / Safety Index (CC50/IC50): MT2 cells
Description: as §1, §2, §3, §4

in vitro = conditions: human, CC50
Description: as §1
For cytotoxicity assay the same amount of MT2 cells as in antivirus assay but without HIV-1 virus were added to the cytotoxicity plates. The cytotoxicity was measured by Cell Titer-Glo cell viability assay (Promega).

[1] = MT2, MT2 cells, viral strain II B, read-out: IC50
[2] = Human immunodeficiency virus 1, MT2, MT2 cells, viral strain CNHN24, read-out: IC50

SMILES | IC50 (HIV-1 strain NL4-3; read-out: IC50) | TI / Safety Index (CC50/IC50) (HIV-1 strain NL4-3) | IC50 (HIV-1 strain IIIB; [1]) | TI / Safety Index (CC50/IC50) (HIV-1 strain IIIB; viral strain II B) | IC50 (HIV-1 strain CNHN24; [2]) | TI / Safety Index (CC50/IC50) (HIV-1 strain CNHN24; viral strain CNHN24) | CC50 (in vitro) | IC50 (HIV-1 strain NL4-3) | IC50 (HIV-1 strain IIIB; MT2) | IC50 (HIV-1 strain CNHN24; Human immunodeficiency virus 1, MT2)
C=C(C)[C@@H]1CC[C@]2(C(=O)N3CCC(Cc4ccccc4)(C(=O)OCC)CC3)CC[C@]3(C)[C@H](CC[C@@H]4[C@@]5(C)CC[C@H](OC(=O)CC(C)(C)C(=O)O)C(C)(C)[C@@H]5CC[C@]43C)[C@@H]12 [Example 57, 4-((1R,3aS,5aR,5bR,7aR,9S,11aR,11bR,13aR,13bR)-3a-(4-benzyl-4-(ethoxycarbonyl)piperidine-1-carbonyl)-5a,5b,8,8,11a-pentamethyl-1-(prop-1-en-2-yl)icosahydro-1H-cyclopenta[a]chrysen-9-yloxy)-2,2-dimethyl-4-oxobutanoic acid] | 857 nM | 23 | 590 nM | 33 | 1070 nM | 20 | > 20000 nM |  |  | 
C=C(C)[C@@H]1CC[C@]2(C(=O)N[C@H]3C[C@@H](C(=O)N4CCCCC4)C3(C)C)CC[C@]3(C)[C@H](CC[C@@H]4[C@@]5(C)CC[C@H](O)C(C)(C)[C@@H]5CC[C@]43C)[C@@H]12 [Example 11, (1R,3aS,5aR,5bR,7aR,9S,11aR,11bR,13aR,13bR)-N-((1S,3R)-2,2-dimethyl-3-(piperidine-1-carbonyl)cyclobutyl)-9-hydroxy-5a,5b,8,8,11a-pentamethyl-1-(prop-1-en-2-yl)icosahydro-1H-cyclopenta[a]chrysene-3a-carboxamide] | 4250 nM | 4.7 | 5670 nM | 3.5 | 5880 nM | 3.4 | > 20000 nM |  |  | 
C=C(C)[C@@H]1CC[C@]2(C(=O)N[C@H]3C[C@@H](C(=O)N4CCOCC4)C3(C)C)CC[C@]3(C)[C@H](CC[C@@H]4[C@@]5(C)CC[C@H](O)C(C)(C)[C@@H]5CC[C@]43C)[C@@H]12 [Example 8, (1R,3aS,5aR,5bR,7aR,9S,11aR,11bR,13aR,13bR)-N-((1S,3R)-2,2-dimethyl-3-(morpholine-4-carbonyl)cyclobutyl)-9-hydroxy-5a,5b,8,8,11a-pentamethyl-1-(prop-1-en-2-yl)icosahydro-1H-cyclopenta[a]chrysene-3a-carboxamide] | 2200 nM | 9 | 3140 nM | 6 | 2830 nM | 7 | 20000 nM |  |  | 
C=C(C)[C@@H]1CC[C@]2(C(=O)N[C@@H]3CC[C@H](CN4CCN(CC)CC4)C3)CC[C@]3(C)[C@H](CC[C@@H]4[C@@]5(C)CC[C@H](OC(=O)CC(C)(C)C(=O)O)C(C)(C)[C@@H]5CC[C@]43C)[C@@H]12 [Example 36, 4-((1R,3aS,5aR,5bR,7aR,9S,11aR,11bR,13aR,13bR)-3a-((1R,3S)-3-((4-ethylpiperazin-1-yl)methyl)cyclopentylcarbamoyl)-5a,5b,8,8,11a-pentamethyl-1-(prop-1-en-2-yl)icosahydro-1H-cyclopenta[a]chrysen-9-yloxy)-2,2-dimethyl-4-oxobutanoic acid] | 5 nM | 4000 | 4 nM | 5000 | 5 nM | 4000 | > 20000 nM |  |  | 
C=C(C)[C@@H]1CC[C@]2(C(=O)N[C@@H]3CC[C@H](CN4CCC(Cc5ccccc5)CC4)C3)CC[C@]3(C)[C@H](CC[C@@H]4[C@@]5(C)CC[C@H](OC(=O)CC(C)(C)CC(=O)O)C(C)(C)[C@@H]5CC[C@]43C)[C@@H]12 [Example 94, 5-((1R,3aS,5aR,5bR,7aR,9S,11aR,11bR,13aR,13bR)-3a-((1R,3S)-3-((4-benzylpiperidin-1-yl)methyl)cyclopentylcarbamoyl)-5a,5b,8,8,11a-pentamethyl-1-(prop-1-en-2-yl)icosahydro-1H-cyclopenta[a]chrysen-9-yloxy)-3,3-dimethyl-5-oxopentanoic acid] | 23 nM | 173 | 19 nM | 210 | 26 nM | 153 | 4000 nM |  |  | 
C=C(C)[C@@H]1CC[C@]2(C(=O)N[C@H]3C[C@@H](C(=O)N4CCCCC4)C3(C)C)CC[C@]3(C)[C@H](CC[C@@H]4[C@@]5(C)CC[C@H](OC(=O)CC(C)(C)C(=O)O)C(C)(C)[C@@H]5CC[C@]43C)[C@@H]12 [Example 12, 4-((1R,3aS,5aR,5bR,7aR,9S,11aR,11bR,13aR,13bR)-3a-((1S,3R)-2,2-dimethyl-3-(piperidine-1-carbonyl)cyclobutylcarbamoyl)-5a,5b,8,8,11a-pentamethyl-1-(prop-1-en-2-yl)icosahydro-1H-cyclopenta[a]chrysen-9-yloxy)-2,2-dimethyl-4-oxobutanoic acid] |  | 316 | 29 nM | 227 | 17 nM | 383 | > 20000 nM | 21 nM |  | 
C=C(C)[C@@H]1CC[C@]2(C(=O)N[C@@H]3C=C[C@H](CN4CCOCC4)C3)CC[C@]3(C)[C@H](CC[C@@H]4[C@@]5(C)CC[C@H](OC(=O)CC(C)(C)C(=O)O)C(C)(C)[C@@H]5CC[C@]43C)[C@@H]12 [Example 95, 2,2-dimethyl-4-oxo-4-((1R,3aS,5aR,5bR,7aR,9S,11aR,11bR,13aR,13bR)-5a,5b,8,8,11a-pentamethyl-3a-((1S,4R)-4-(morpholinomethyl)cyclopent-2-enylcarbamoyl)-1-(prop-1-en-2-yl)icosahydro-1H-cyclopenta[a]chrysen-9-yloxy)butanoic acid] | 4 nM | 5000 |  | 20000 |  |  | > 20000 nM |  | 1 nM | 3 nM
C=C(C)[C@@H]1CC[C@]2(C(=O)N[C@H]3C[C@@H](C(=O)N4CCOCC4)C3(C)C)CC[C@]3(C)[C@H](CC[C@@H]4[C@@]5(C)CC[C@H](OC(=O)CC(C)(C)C(=O)O)C(C)(C)[C@@H]5CC[C@]43C)[C@@H]12 [Example 9, 4-((1R,3aS,5aR,5bR,7aR,9S,11aR,11bR,13aR,13bR)-3a-((1S,3R)-2,2-dimethyl-3-(morpholine-4-carbonyl)cyclobutylcarbamoyl)-5a,5b,8,8,11a-pentamethyl-1-(prop-1-en-2-yl)icosahydro-1H-cyclopenta[a]chrysen-9-yloxy)-2,2-dimethyl-4-oxobutanoic acid] |  | 3579 | 7 nM | 2658 | 8 nM | 2429 | > 20000 nM | 5 nM |  | 
C=C(C)[C@@H]1CC[C@]2(C(=O)N3CCN(CC)CC3)CC[C@]3(C)[C@H](CC[C@@H]4[C@@]5(C)CC[C@H](OC(=O)C6CC(C(=O)O)C6(C)C)C(C)(C)[C@@H]5CC[C@]43C)[C@@H]12 (stereo partly drawn) [Example 54, 3-(((1R,3aS,5aR,5bR,7aR,9S,11aR,11bR,13aR,13bR)-3a-(4-ethylpiperazine-1-carbonyl)-5a,5b,8,8,11a-pentamethyl-1-(prop-1-en-2-yl)icosahydro-1H-cyclopenta[a]chrysen-9-yloxy)carbonyl)-2,2-dimethylcyclobutanecarboxylic acid] | 13 nM | 1538 | 5 nM | 4000 | 24 nM | 833 | > 20000 nM |  |  | 
C=C(C)[C@@H]1CC[C@]2(C(=O)N[C@@H]3CC[C@H](CN4CCC(Cc5ccccc5)CC4)C3)CC[C@]3(C)[C@H](CC[C@@H]4[C@@]5(C)CC[C@H](OC(=O)CCCC(=O)O)C(C)(C)[C@@H]5CC[C@]43C)[C@@H]12 [Example 33, 5-((1R,3aS,5aR,5bR,7aR,9S,11aR,11bR,13aR,13bR)-3a-((1R,3S)-3-((4-benzylpiperidin-1-yl)methyl)cyclopentylcarbamoyl)-5a,5b,8,8,11a-pentamethyl-1-(prop-1-en-2-yl)icosahydro-1H-cyclopenta[a]chrysen-9-yloxy)-5-oxopentanoic acid] | 6700 nM | 2.98 | 6700 nM | 2.98 | 6700 nM | 2.98 | 20000 nM |  |  | 
C=C(C)[C@@H]1CC[C@]2(C(=O)N3CCC(CC)(C(=O)OCC)CC3)CC[C@]3(C)[C@H](CC[C@@H]4[C@@]5(C)CC[C@H](OC(=O)CC(C)(C)C(=O)O)C(C)(C)[C@@H]5CC[C@]43C)[C@@H]12 [Example 74, 4-((1R,3aS,5aR,5bR,7aR,9S,11aR,11bR,13aR,13bR)-3a-(4-(ethoxycarbonyl)-4-ethylpiperidine-1-carbonyl)-5a,5b,8,8,11a-pentamethyl-1-(prop-1-en-2-yl)icosahydro-1H-cyclopenta[a]chrysen-9-yloxy)-2,2-dimethyl-4-oxobutanoic acid] | 165 nM | 47 | 86 nM | 90 | 163 nM | 47 | 7760 nM |  |  | 
